Reference: patent US4196205A, “3-Acetoxymethyl-7-(iminoacetamido)-cephalosporanic acid derivatives” (priority 1976, dated 1980)
In brackets after ≈: the same amount, converted by molar mass. Where two headings read alike, the source gives them in different places.

Legend:
[1] = test system: Proteus Mirabilis A 235; test: Experimental infection of Proteus Mirabilis in mice; format: in vivo
Protocol: Groups of 10 mice with an average weight of 22 g received intraperitoneally 0.5 ml of a 24 hour old culture in oxoid bouillon of Proteus Mirabilis A 235 diluted 1/4 with distilled water. The mice then received subcutaneously the compound of Examples 11 or 15 one hour and 5 and 24 hours after the infection and the results are reported in the following Table.

[2] = test system: Escherichia Coli Resistant Tetracycline ATCC 11 303 = UC 1261; test: MIC, dilution in liquid medium; format: cell-based; settings: Escherichia coli, 24 h
Protocol: (§1) The method used was a dilution of a liquid medium where a series of tubes received the same quantity of a sterile nutritive media and increasing doses of the test compounds were placed therein. Then each tube was seeded with a bacterial strain and was incubated for 24 to 48 hours at 37° C. in an oven. The increasing inhibition was determined by transillumination to determine the minimum inhibiting concentration (MIC in […]) and the results are reported in the following Tables.

[3] = test system: Staphylococcus aureus ATCC 5 638 Pen-Sensible = UC 1061; test: MIC, dilution in liquid medium; format: cell-based; settings: 24 h
Protocol: as §1

[4] = test system: Proteus vulgaris (indol+) A 232; test: MIC, dilution in liquid medium; format: cell-based; settings: for MIC: Proteus vulgaris
Protocol: as §1

[5] = test system: Providencia Du 48; test: MIC, dilution in liquid medium; format: cell-based; settings: Providencia
Protocol: as §1

[6] = test system: Klebsiella pneumoniae 2 536 Resistant Gentamicine; test: MIC, dilution in liquid medium; format: cell-based; settings: Klebsiella pneumoniae
Protocol: as §1

[7] = test system: Streptococcus faecalis 5 432; test: MIC, dilution in liquid medium; format: cell-based; settings: Enterococcus faecalis, 5432, 48 h
Protocol: as §1

[8] = test system: Staphylococcus aureus UC 1 128 Pen-Resistant; test: MIC, dilution in liquid medium; format: cell-based; settings: for MIC: Staphylococcus aureus
Protocol: as §1

[9] = test system: Serratia Resistant Gentamicine 2 532; test: MIC, dilution in liquid medium; format: cell-based; settings: 24 h
Protocol: as §1

[10] = test system: Streptococcus pyogenes A 561; test: MIC, dilution in liquid medium; format: cell-based; settings: Streptococcus pyogenes, read-out: M.I.C.
Protocol: as §1

[11] = test system: Bacillus subtilis ATCC 6 633; test: MIC, dilution in liquid medium; format: cell-based; settings: for MIC: Bacillus subtilis, read-out: M.I.C.
Protocol: as §1

[12] = test system: Streptococcus faecalis 99 F 74; test: MIC, dilution in liquid medium; format: cell-based; settings: Enterococcus faecalis, 99F74, 48 h, 48 H
Protocol: as §1

[13] = test system: Staphylococcus aureus exp. n° 54 146; test: MIC, dilution in liquid medium; format: cell-based; settings: Staphylococcus aureus, 24 h
Protocol: as §1

[14] = test system: Proteus mirabilis (indol-) A 235; test: MIC, dilution in liquid medium; format: cell-based; settings: Proteus mirabilis, read-out: M.I.C.
Protocol: as §1

[15] = test system: Escherichia Coli Resistant Gentamicine, Tobramycine R 55 123 D; test: MIC, dilution in liquid medium; format: cell-based; settings: Escherichia coli
Protocol: as §1

[16] = test system: Klebsiella pneumoniae Exp. 52 145; test: MIC, dilution in liquid medium; format: cell-based; settings: Klebsiella pneumoniae, read-out: M.I.C.
Protocol: as §1

[17] = test system: Escherichia Coli Sensible Tetracycline ATCC 9 637 = 1020; test: MIC, dilution in liquid medium; format: cell-based; settings: for MIC: Escherichia coli
Protocol: as §1

[18] = test system: Salmonella typhimurium 420; test: MIC, dilution in liquid medium; format: cell-based; settings: for MIC: Salmonella enterica, TYPHIMURIUM
Protocol: as §1

[19] = test system: Pseudomonas 3 935 Exp. SG; test: MIC, dilution in liquid medium; format: cell-based; settings: for MIC: Pseudomonas, 3935EXP.SG
Protocol: as §1

[20] = test system: Escherichia Coli Exp. TO26 B6; test: MIC, dilution in liquid medium; format: cell-based
Protocol: as §1

For `CCO/N=C(\C(=O)N[C@@H]1C(=O)N2C(C(=O)O)=C(COC(C)=O)CS[C@H]12)c1csc(N)n1` [Example 11, 3-acetoxymethyl-7-[2-(2-amino-4-thiazolyl)-2-ethoxyiminoacetamido]-ceph-3-eme-4-carboxylic acid], the “MORTALITY AFTER 21H30” value ([1]; 0.025 mg subcutaneously) was 3, the “MORTALITY AFTER 22H15” value ([1]; 0.025 mg subcutaneously) was 1 and the “MORTALITY AFTER 24H20” value ([1]; 0.025 mg subcutaneously) was 1. For the same compound, the “MORTALITY AFTER 28H” value ([1]; 0.025 mg subcutaneously) was 2, the “MORTALITY AFTER 46H” value ([1]; 0.025 mg subcutaneously) was 2 and the “MORTALITY AFTER 53H” value ([1]; 0.025 mg subcutaneously) was 1. For the same compound, the “Mice Alive on the 8th day” value ([1]; 0.025 mg subcutaneously) was 0/10, the “MORTALITY AFTER 22H15” value ([1]; 0.05 mg subcutaneously) was 1 and the “MORTALITY AFTER 24H20” value ([1]; 0.05 mg subcutaneously) was 1. The “MORTALITY AFTER 31H45” value ([1]; 0.05 mg subcutaneously) was 1, the “MORTALITY AFTER 70H” value ([1]; 0.05 mg subcutaneously) was 2 and the “Mice Alive on the 8th day” value ([1]; 0.05 mg subcutaneously) was 5/10. For the same compound, the “MORTALITY AFTER 28H” value ([1]; 0.1 mg subcutaneously) was 1, the “MORTALITY AFTER 46H” value ([1]; 0.1 mg subcutaneously) was 2 and the “Mice Alive on the 8th day” value ([1]; 0.1 mg subcutaneously) was 7/10. The “Mice Alive on the 8th day” value ([1]; 0.25 mg subcutaneously) was 10/10, the “Mice Alive on the 8th day” value ([1]; 0.5 mg subcutaneously) was 10/10 and the “Mice Alive on the 8th day” value ([1]; 1 mg subcutaneously) was 10/10. It also gave an MIC [2] of no more than 0.2 µg/mL, an MIC ([2]; read-out: M.I.C.) of 0.5 µg/mL (≈ 1.06 µM) and an MIC [3] of 2 µg/mL (≈ 4.26 µM). It also gave a M.I.C. ([4]; 48 H) of 1 µg/mL, an MIC ([4]; 24 h, read-out: M.I.C.) of 0.5 µg/mL (≈ 1.06 µM) and an MIC ([4]; 48 h) of 2 µg/mL (≈ 4.26 µM). For the same compound, the MIC ([5]; DU48, 24 h, 24 H) was 5 µg/mL (≈ 10.6 µM), the MIC ([5]; DU48, 48 h, 48 H) was 5 µg/mL (≈ 10.6 µM) and the MIC ([6]; 24 h) was 2 µg/mL (≈ 4.26 µM). For the same compound, the MIC ([6]; 24 h, read-out: M.I.C.) was 10 µg/mL (≈ 21.3 µM), the MIC ([6]; 48 h) was 2 µg/mL (≈ 4.26 µM) and the MIC ([6]; 48 h, read-out: M.I.C.) was 10 µg/mL (≈ 21.3 µM). It also gave an MIC ([7]; 48 H) of 40 µg/mL (≈ 85.2 µM), an MIC ([7]; read-out: M.I.C.) of 10 µg/mL (≈ 21.3 µM) and a M.I.C. ([8]; 24 H) of 3 µg/mL. For the same compound, the M.I.C. ([8]; 48 H) was 5 µg/mL, the MIC ([8]; UC1, 24 h, 24 H) was 2 µg/mL (≈ 4.26 µM) and the MIC ([8]; UC1, 48 h, 48 H) was 3 µg/mL (≈ 6.39 µM). It also gave an MIC [9] of 2 µg/mL (≈ 4.26 µM), an MIC ([10]; A561, 24 h, 24 H) of 0.02 µg/mL (≈ 0.0426 µM) and an MIC ([10]; A561, 48 h, 48 H) of 0.02 µg/mL (≈ 0.0426 µM). The M.I.C. ([11]; 24 H) was 0,5 μg/ml, the MIC ([11]; ATCC6, 24 h, 24 H) was 0.4 µg/mL (≈ 0.852 µM) and the MIC ([11]; ATCC6, 48 h, 48 H) was 0.4 µg/mL (≈ 0.852 µM). The MIC [12] was 20 µg/mL (≈ 42.6 µM), the MIC [13] was 2 µg/mL (≈ 4.26 µM) and the MIC ([14]; 24 h) was 0.5 µg/mL (≈ 1.06 µM). For the same compound, the MIC ([14]; 48 h) was 0.5 µg/mL (≈ 1.06 µM), the MIC ([15]; 24 h) was 1 µg/mL (≈ 2.13 µM) and the MIC ([15]; 24 h, read-out: M.I.C.) was 0.6 µg/mL (≈ 1.28 µM). It also gave an MIC ([15]; 48 h) of 1 µg/mL (≈ 2.13 µM), an MIC ([15]; 48 h, read-out: M.I.C.) of 0.6 µg/mL (≈ 1.28 µM) and an MIC ([16]; EXP.52145, 24 h, 24 H) of 0.2 µg/mL (≈ 0.426 µM). For the same compound, the MIC ([16]; EXP.52145, 48 h, 48 H) was 0.2 µg/mL (≈ 0.426 µM), the M.I.C. ([17]; 24 H) was 2 µg/mL and the M.I.C. ([17]; 48 H) was 2 µg/mL. The MIC ([17]; ATCC9, 24 h, 24 H) was 1 µg/mL (≈ 2.13 µM), the MIC ([17]; ATCC9, 48 h, 48 H) was 1 µg/mL (≈ 2.13 µM) and the M.I.C. ([18]; 24 H) was 2 µg/mL. It also gave a M.I.C. ([18]; 48 H) of 2 µg/mL, an MIC ([18]; 24 h) of 1 µg/mL (≈ 2.13 µM) and an MIC ([18]; 48 h) of 1 µg/mL (≈ 2.13 µM). It also gave a M.I.C. ([19]; 24 H) of 40 µg/mL, an MIC ([19]; 24 h) of 20 µg/mL (≈ 42.6 µM) and an MIC ([19]; 48 h) of 40 µg/mL (≈ 85.2 µM). For the same compound, the M.I.C. ([20]; 24 H) was 0.4 µg/mL and the M.I.C. ([20]; 48 H) was 0.4 µg/mL.
